Assay results as given in ChEMBL document CHEMBL1131754, “2-heterosubstituted-3-(4-methylsulfonyl)phenyl-5-trifluoromethyl pyridines as selective and orally active cyclooxygenase-2 inhibitors” (Bioorg Med Chem Lett, 1999).

How the values were obtained:
[1] = biological target: T1, Prostaglandin G/H synthase 1 (Homo sapiens, UniProt P23219); assay: In vitro inhibitory concentration required against Cyclooxygenase-1 (COX-1) determined in human whole blood (HWB) assay; type: tissue-based
[2] = biological target: T2, Prostaglandin G/H synthase 2 (Homo sapiens, UniProt P35354); type: cell-based, CHO whole
T2 sequence (P35354 whole entry): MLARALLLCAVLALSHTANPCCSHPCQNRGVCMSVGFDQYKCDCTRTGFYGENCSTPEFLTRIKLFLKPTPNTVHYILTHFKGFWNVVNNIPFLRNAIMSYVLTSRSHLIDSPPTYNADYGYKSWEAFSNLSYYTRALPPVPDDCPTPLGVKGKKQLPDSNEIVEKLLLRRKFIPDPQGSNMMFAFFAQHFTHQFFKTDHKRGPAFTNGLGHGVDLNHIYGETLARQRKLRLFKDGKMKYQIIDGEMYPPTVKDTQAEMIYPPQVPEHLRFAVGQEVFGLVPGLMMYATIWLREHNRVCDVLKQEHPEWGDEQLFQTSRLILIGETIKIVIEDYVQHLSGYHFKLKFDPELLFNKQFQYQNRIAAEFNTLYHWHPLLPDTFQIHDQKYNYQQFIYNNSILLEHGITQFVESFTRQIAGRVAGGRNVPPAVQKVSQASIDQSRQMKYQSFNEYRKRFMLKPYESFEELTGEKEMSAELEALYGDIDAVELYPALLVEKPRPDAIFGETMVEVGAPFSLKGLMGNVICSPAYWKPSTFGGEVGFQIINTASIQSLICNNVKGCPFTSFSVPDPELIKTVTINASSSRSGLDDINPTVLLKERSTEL
Description: Inhibition of Prostaglandin G/H synthase 2 in CHO whole cell assay

[3] = biological target: T2, Prostaglandin G/H synthase 2
Description: Inhibition of Prostaglandin G/H synthase 2 in human whole blood (HWB) assay

[4] = Half-life in rats with metabolic oxidation; type: ADME, organism-based; settings: rat, in vivo
[5] = Oral bioavailability in rat; type: ADME, organism-based; settings: in vivo
Rattus norvegicus [6] = assay: Compound was tested in vivo for its efficacy in the rat paw edema assay; type: functional
Rattus norvegicus [7] = assay: Compound was tested in vivo for its efficacy in the rat pyresis assay; type: functional
Rattus norvegicus [8] = assay: Compound was tested in vivo for its efficacy in the model of carrageenan-induced hyperalgesia in rats; type: functional; settings: read-out: ID50 (the source's name)
[9] = biological target: T1, Prostaglandin G/H synthase 1
Description: Inhibition of Prostaglandin G/H synthase 1 in human whole blood (HWB) assay

[10] = Half-life in rats was determined; type: ADME, organism-based; settings: rat, in vivo
[11] = Half-life in rats; type: ADME, organism-based; settings: rat, in vivo
[12] = Maximum concentration in rats at 1-2 hours; type: ADME, organism-based; settings: rat, in vivo
[13] = Maximum concentration in rats; type: ADME, organism-based; settings: rat, in vivo
[14] = Half life in rats; type: ADME, organism-based; settings: rat, in vivo
[15] = Cmax in rats determined 6 hours after oral dosing of 20 mg/kg; type: ADME, organism-based; design: dose 20 mg/kg, route oral; settings: rat, in vivo

T1 sequence (P23219 whole entry): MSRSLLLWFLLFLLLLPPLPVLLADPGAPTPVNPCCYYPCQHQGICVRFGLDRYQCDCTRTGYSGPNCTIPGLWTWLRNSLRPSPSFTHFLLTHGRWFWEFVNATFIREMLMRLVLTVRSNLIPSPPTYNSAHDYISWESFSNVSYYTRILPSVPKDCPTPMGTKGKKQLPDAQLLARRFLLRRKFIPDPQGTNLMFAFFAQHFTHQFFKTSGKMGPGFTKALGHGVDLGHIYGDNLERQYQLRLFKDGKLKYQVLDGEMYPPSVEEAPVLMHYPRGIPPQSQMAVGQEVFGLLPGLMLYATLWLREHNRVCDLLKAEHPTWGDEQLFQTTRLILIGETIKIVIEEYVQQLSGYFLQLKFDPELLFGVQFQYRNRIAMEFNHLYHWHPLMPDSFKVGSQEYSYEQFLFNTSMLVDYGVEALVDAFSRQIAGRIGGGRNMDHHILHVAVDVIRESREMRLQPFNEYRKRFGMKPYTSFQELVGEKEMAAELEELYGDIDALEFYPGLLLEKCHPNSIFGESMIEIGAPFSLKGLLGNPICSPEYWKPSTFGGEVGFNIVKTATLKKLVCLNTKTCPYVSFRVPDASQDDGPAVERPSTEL

Structure (SMILES)	IC50 [2] [nM]	IC50 [3] [nM]	bioavailability [5] [%]	IC50 [9] [nM]	ED50 (Rattus norvegicus [6]) [mg/kg]	ED50 (Rattus norvegicus [7]) [mg/kg]	also measured
CS(=O)(=O)c1ccc(-c2cc(C(F)(F)F)cnc2Oc2ccccc2)cc1	< 200	< 400	–	–	–	–	IC50 [1]: < 1240 nM
C[C@H](CO)Sc1ncc(C(F)(F)F)cc1-c1ccc(S(C)(=O)=O)cc1	< 200	140	> 75	29000	0.3	0.3	half-life [4]: < 2 h; ED50 (Rattus norvegicus [8]): 0.65 mg/kg
CC(C)(O)CSc1ncc(C(F)(F)F)cc1-c1ccc(S(C)(=O)=O)cc1	–	–	> 75	–	1.5	0.5	half-life [10]: > 12 h
CS(=O)(=O)c1ccc(-c2cc(C(F)(F)F)cnc2OCC2(O)CCCC2)cc1	–	–	> 75	83000	1.8	2.2	half-life [11]: ≤ 4 h; Cmax [12]: 9 µM
CS(=O)(=O)c1ccc(-c2cc(C(F)(F)F)cnc2OCc2ccc(Cl)cc2)cc1	< 200	> 33000	–	> 100000	–	–	–
C[C@]1(O)CCC[C@H]1Oc1ncc(C(F)(F)F)cc1-c1ccc(S(C)(=O)=O)cc1	–	–	> 75	> 100000	0.4	1.6	Cmax [13]: 9 µM; half-life [14]: ≤ 4 h
CS(=O)(=O)c1ccc(-c2cc(C(F)(F)F)cnc2N2CCCC(CO)C2)cc1 (stereo not drawn)	< 200	800	> 75	41000	1.4	0.5	half-life [10]: < 2 h
CS(=O)(=O)c1ccc(-c2cc(Br)sc2-c2ccc(F)cc2)cc1 [DUP-697]	–	–	–	–	1.3	–	–
COc1ccc2c(c1)c(CC(=O)O)c(C)n2C(=O)c1ccc(Cl)cc1 [INDOMETHACIN]	–	–	–	–	2	1.1	ED50 (Rattus norvegicus [8]): 1.5 mg/kg

Second part, led by results:

IC50 [2] [nM]	IC50 [3] [nM]	bioavailability [5] [%]	IC50 [9] [nM]	Structure (SMILES)	ED50 (Rattus norvegicus [6]) [mg/kg]	ED50 (Rattus norvegicus [7]) [mg/kg]	also measured
< 200	460	> 75	> 100000	C[C@H](Oc1ncc(C(F)(F)F)cc1-c1ccc(S(C)(=O)=O)cc1)C(C)(C)O	2.2	0.8	–
< 200	4700	> 75	> 100000	CCC(O)(CC)[C@H](C)Oc1ncc(C(F)(F)F)cc1-c1ccc(S(C)(=O)=O)cc1	2.8	1.3	–
< 200	500	–	> 100000	CS(=O)(=O)c1ccc(-c2cc(C(F)(F)F)cnc2OCC(F)(F)F)cc1	2.4	–	Cmax [15]: 2.4 µM
< 200	1000	> 75	> 100000	CC(C)(O)COc1ncc(C(F)(F)F)cc1-c1ccc(S(C)(=O)=O)cc1	1.9	6.8	half-life [11]: > 12 h
< 200	500	–	> 100000	CS(=O)(=O)c1ccc(-c2cc(C(F)(F)F)cnc2OC(C(F)(F)F)C(F)(F)F)cc1	–	–	–
